Measured values from patent publication US5741487A, “Mutanase-containing oral compositions” (priority 1996, dated 1998).
“Also recorded” adds a separate entry of the source. Like-named read-outs stand apart in the source and are kept apart here.

Assays:
Type in all cases: biochemical
[1] = test system: Mutanase B (RM4 enzyme) from Bacillus sp. RM4 (FERM P-14837)
Protocol: (§1) To 100 μl of a 0.1M acetic acid buffer containing 3% mutan (pH 5) was added 100 μl of the mutanase solution. The mixture was incubated at 35° C. for 10 minutes with shaking at 100 strokes/min. Reaction was terminated by adding 0.4 ml of a 4,6-dinitrosalicylic acid (DNS) solution. The reaction mixture was centrifuged and 0.5 ml of the supernatant was transferred into a test tube. The tube was capped with a glass ball and kept in boiling water for 10 minutes. The tube was cooled with water for 5 minutes. Then 4 ml of distilled water was added and optical absorbance measured at 530 nm. A titer was determined using glucose as standard. The amount of enzyme which releases 1 μg of reducing sugar per minute is defined as one unit. It is noted that the enzymatic activity referred to below in conjunction with any of physicochemical properties is measured by this method.
(§2) Mutanase according to the invention was added to a 50 mM acetic acid buffer (pH 5) in an amount of 50 units/ml. Various inhibitors were individually added thereto in a final concentration of 1 mM. The solution was incubated at 35° C. for 30 minutes. The relative activity is expressed based on the assumption that the enzymatic activity of an inhibitor-free sample is 100%.

[2] = test system: Mutanase A (RM1 enzyme) from Bacillus sp. RM1 (FERM P-14836)
Protocol: as §1, §2

[3] = test system: Mutanase C (M7 enzyme) from Bacillus sp. M7 (FERM P-14835)
Protocol: as §1, §2

[4] = inhibitor final concentration 1 mM, 50 mM acetic acid buffer pH 5, 35° C., 30 minutes, inhibitor-free sample = 100%
[5] = mutan substrate, 1 mM inhibitor

Question: O=C(O)CI [Iodoacetic acid] was tested. Which “Relative activity (%) Mutanase B” value ([1]; pH 5) did it give?
Answer: 99%

Question: What about the “Relative activity (%) Mutanase A” value ([2]; pH 5) of the same compound?
Answer: 100%

Question: And the “Relative activity (%) Mutanase C” value ([3]; pH 5)?
Answer: 87%

Question: For O=C(O)c1cc[c]([Hg][Cl])cc1 [PCMB, p-chloromercurybenzoic acid], which “Relative activity (%) Mutanase B” value [1, 4] is on record?
Answer: 14%

Question: And the “effect of inhibitors on mutanase B (in words)” value [1, 5]?
Answer: shows inhibitory effect; also recorded: strongly inhibits

Question: And the “Relative activity (%) Mutanase A” value [2, 4]?
Answer: 6%

Question: And the “effect of inhibitors on mutanase A (in words)” value [2, 5]?
Answer: shows inhibitory effect; also recorded: strongly inhibits

Question: What about the “Relative activity (%) Mutanase C” value [3, 4] of the same compound?
Answer: 11%

Question: And the “effect of inhibitors on mutanase C (in words)” value [3, 5]?
Answer: shows inhibitory effect; also recorded: strongly inhibits

Question: For O=C(O)CN(CCN(CC(=O)O)CC(=O)O)CC(=O)O [2Na-EDTA], which “Relative activity (%) Mutanase B” value ([1]; pH 5) is on record?
Answer: 99%

Question: What about the “Relative activity (%) Mutanase A” value ([2]; pH 5) of the same compound?
Answer: 93%

Question: And the “Relative activity (%) Mutanase C” value ([3]; pH 5)?
Answer: 79%

Question: How did the “Relative activity (%) Mutanase B” value [1, 4] turn out when CCN1C(=O)C=CC1=O [N-ethylmaleimide] was run?
Answer: 98%

Question: And the “Relative activity (%) Mutanase A” value [2, 4]?
Answer: 100%

Question: What about the “Relative activity (%) Mutanase C” value [3, 4] of the same compound?
Answer: 94%
